Results on 5 compounds are retold here after patent US20260022142A1, “MACROCYCLIC IMMUNOMODULATORS” (Bristol-Myers Squibb Company, priority 2022, published 2026).

For orientation: IC50 means the concentration that inhibits the measured activity by half.

Bridge positions count the residues as written; N and C are the ends. Square brackets hold non-standard residues; d marks the D form. Peptide text beside a SMILES is read from it. * marks the point of attachment. ξ: configuration not given here. Bip = N[C@@H](Cc1ccc(-c2ccccc2)cc1)C(=O)O; Phe(3-Me) = Cc1cccc(C[C@H](N)C(=O)O)c1; Val(3-OH) = CC(C)(O)[C@H](N)C(=O)O; Cha = N[C@@H](CC1CCCCC1)C(=O)O; Thr(3ξ) = CC(O)[C@H](N)C(=O)O; 12Ado = NCCCCCCCCCCCC(=O)O; Carboxymethyl = O=C(O)C*; Orn = NCCC[C@H](N)C(=O)O; Aun = NCCCCCCCCCCC(=O)O; Dab = NCC[C@H](N)C(=O)O

The target of this assay is T1, PD-1/PD-L1 interaction (PE-labeled human PD-L1-Ig binding to Jurkat cell line over-expressing human PD-1) (Homo sapiens, UniProt Q15116).
T1 construct: expressed in transfected cells; host or cells: Jurkat
T1 sequence (Q15116 25-288): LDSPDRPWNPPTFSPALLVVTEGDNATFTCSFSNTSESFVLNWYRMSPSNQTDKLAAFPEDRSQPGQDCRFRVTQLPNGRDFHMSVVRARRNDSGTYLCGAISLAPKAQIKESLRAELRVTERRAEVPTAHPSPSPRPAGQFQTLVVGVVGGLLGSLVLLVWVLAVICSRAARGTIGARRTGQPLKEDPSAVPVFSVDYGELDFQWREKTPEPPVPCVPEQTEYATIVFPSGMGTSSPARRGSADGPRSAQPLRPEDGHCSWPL
Briefly: Jurkat-PD-1 Cell Binding High-Content Screening Assay (CBA). Format: cell-based. The conditions noted are these: Jurkat cell line over-expressing human PD-1; PE-labeled PD-L1-Ig 20 nM final; read-out: Jurkat hPD1-PDL1 IC50. A digest of the protocol: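 Jurkat cells stably over-expressing human PD-1 were seeded in DMEM with 10% fetal calf serum and pre-incubated with compound for 2 h at 37° C. PE-labeled human PD-L1-Ig was then added at 20 nM final for 1 hour, after which cells were fixed with paraformaldehyde, Hoechst-stained and imaged by high-content microscopy.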
For `Cc1cccc(C[C@@H]2NC(=O)[C@H](CC(=O)O)NC(=O)[C@H](Cc3ccc(OCC(=O)O)cc3)NC(=O)[C@H](CCN)NC(=O)CSC[C@@H](C(=O)N[C@@H](CCN)C(=O)NCCCCCCCCCCCC(=O)O)NC(=O)[C@H](CCCN)NC(=O)[C@H](C(C)(C)O)NC(=O)[C@H](CC3CCCCC3)NC(=O)[C@H](CCN)NC(=O)[C@@H](CC(C)C)NC(=O)[C@H](CCCN)NC(=O)[C@H](Cc3ccc(OCC(=O)O)cc3)NC(=O)[C@H](Cc3ccc(-c4ccccc4)cc3)NC(=O)[C@H](Cc3ccc(OCC(=O)O)cc3)NC2=O)c1` [Compound 3626] ({CH2CO}-[Dab]Y(Carboxymethyl)D[Phe(3-Me)]Y(Carboxymethyl)[Bip]Y(Carboxymethyl)[Orn][dL][Dab][Cha][Val(3-OH)][Orn]C[Dab][12Ado]-OH; thioether N-14), the IC50 was 7.3 nM.

Turning to `CC(=O)NCCCC[C@@H]1NC(=O)[C@H](Cc2ccc(-c3ccccc3)cc2)NC(=O)[C@H](Cc2ccc(O)cc2)NC(=O)[C@H](Cc2cccc(C)c2)NC(=O)[C@H](CC(=O)O)NC(=O)[C@H](Cc2ccc(OCC(=O)O)cc2)NC(=O)[C@H](CCN)NC(=O)CSC[C@@H](C(=O)N[C@@H](CCN)C(=O)N[C@@H](CO)C(=O)NCCCCCCCCCCCC(=O)O)NC(=O)[C@H](CO)NC(=O)[C@H](CCCCN)NC(=O)[C@H](CC2CCCCC2)NC(=O)[C@H](CCN)NC(=O)[C@@H](CC(C)C)NC(=O)[C@H](CCCN)NC1=O` [Compound 3627] ({CH2CO}-[Dab]Y(Carboxymethyl)D[Phe(3-Me)]Y[Bip]K(Ac)[Orn][dL][Dab][Cha]KSC[Dab]S[12Ado]-OH; thioether N-14), the IC50 amounted to 36.7 nM.

For `Cc1cccc(C[C@@H]2NC(=O)[C@H](CC(=O)O)NC(=O)[C@H](Cc3ccc(OCC(=O)O)cc3)NC(=O)[C@H](Cc3ccccc3)NC(=O)CSC[C@@H](C(=O)N[C@@H](CCN)C(=O)NCCCCCCCCCCC(=O)O)NC(=O)[C@H](CO)NC(=O)[C@H](C(C)(C)O)NC(=O)[C@H](CC3CCCCC3)NC(=O)[C@H](CCN)NC(=O)[C@@H](CC(C)C)NC(=O)[C@H](CCCN)NC(=O)[C@H](Cc3ccc(OCC(=O)O)cc3)NC(=O)[C@H](Cc3ccc(-c4ccccc4)cc3)NC(=O)[C@H](Cc3ccc(OCC(=O)O)cc3)NC2=O)c1` [Compound 3628] ({CH2CO}-FY(Carboxymethyl)D[Phe(3-Me)]Y(Carboxymethyl)[Bip]Y(Carboxymethyl)[Orn][dL][Dab][Cha][Val(3-OH)]SC[Dab][Aun]-OH; thioether N-14), the concentration for half-maximal inhibition (IC50) worked out at 23 nM.

With `Cc1cccc(C[C@@H]2NC(=O)[C@H](CC(=O)O)NC(=O)[C@H](Cc3ccc(OCC(=O)O)cc3)NC(=O)[C@H](CCN)NC(=O)CSC[C@@H](C(=O)N[C@@H](CCN)C(=O)NCCCCCCCCCCC(=O)O)NC(=O)[C@H](CO)NC(=O)[C@H](C(C)(C)O)NC(=O)[C@H](CC3CCCCC3)NC(=O)[C@H](CCN)NC(=O)[C@@H](CC(C)C)NC(=O)[C@H](CCCN)NC(=O)[C@H](Cc3ccc(OCC(=O)O)cc3)NC(=O)[C@H](Cc3ccc(-c4ccccc4)cc3)NC(=O)[C@H](Cc3ccc(OCC(=O)O)cc3)NC2=O)c1` [Compound 3629] ({CH2CO}-[Dab]Y(Carboxymethyl)D[Phe(3-Me)]Y(Carboxymethyl)[Bip]Y(Carboxymethyl)[Orn][dL][Dab][Cha][Val(3-OH)]SC[Dab][Aun]-OH; thioether N-14), the IC50 is 8.4 nM.

As for `Cc1cccc(C[C@@H]2NC(=O)[C@H](CC(=O)O)NC(=O)[C@H](Cc3ccc(OCC(=O)O)cc3)NC(=O)[C@H](CCN)NC(=O)CSC[C@@H](C(=O)N[C@@H](CCN)C(=O)NCCCCCCCCCCC(=O)O)NC(=O)[C@H](CO)NC(=O)[C@H](C(C)O)NC(=O)[C@H](CC3CCCCC3)NC(=O)[C@H](CCN)NC(=O)[C@@H](CC(C)C)NC(=O)[C@H](CCCN)NC(=O)[C@H](Cc3ccc(OCC(=O)O)cc3)NC(=O)[C@H](Cc3ccc(-c4ccccc4)cc3)NC(=O)[C@H](Cc3ccc(OCC(=O)O)cc3)NC2=O)c1` (stereo partly drawn) [Compound 3630] ({CH2CO}-[Dab]Y(Carboxymethyl)D[Phe(3-Me)]Y(Carboxymethyl)[Bip]Y(Carboxymethyl)[Orn][dL][Dab][Cha][Thr(3ξ)]SC[Dab][Aun]-OH; thioether N-14), the IC50 was found to be 6.7 nM.
